A short description of test [1]: microbe, parasite or virus in culture. As to conditions: Mycobacterium tuberculosis, 96 h, read-out: pIC50 (converted).
The nature of test [2]: microbe, parasite or virus in culture. As to conditions: Mycobacterium tuberculosis, 72 h, read-out: pIC50 (converted).

Some results are limits rather than exact numbers.

For the compound `CN1CCC(CNC(=O)c2cccc(C(F)(F)F)c2)c2ccccc21` (stereo not drawn), the figures for the IC50 in test [1] and in test [2] were over 50.1 µM and 45.5 µM, respectively.

With `CCCc1ccc(N2CCN(Cc3nc4ccccc4n3C)CC2)cc1`, the IC50 in test [1] was over 50.1 µM; in test [2], 26 µM.

Turning to `COc1ccc(C2SCC(=O)N2c2ncc(C)s2)cc1` (stereo not drawn), the IC50 in test [1] was 30.1 µM; in test [2] it was 5.8 µM.

For the compound `Cc1cnc(N2C(=O)CSC2c2ccc(N(C)C)cc2)s1` (stereo not drawn), the IC50 in test [1] is 5.45 µM; in test [2], 7.14 µM.

As to `CC(C)Oc1cccc(C(O)CNC(=O)NCc2cccs2)c1` (stereo not drawn), the results for the IC50 in test [1] and in test [2] were 30.8 µM and over 50.1 µM, respectively.

Consider `Cc1ccc(C(=O)NCCCN(C)S(C)(=O)=O)cc1-n1cccc1`, for which the IC50 in test [1] was over 50.1 µM; in test [2] it was 30.9 µM.

Regarding `CC(C)c1nnc(CNc2ccc(SC(F)(F)F)cc2)o1`, the IC50 was 18.9 µM in test [1] and 19.3 µM in test [2].

For `FC(F)Sc1ccc(NCc2nnc(C3CC3)o2)cc1`, the IC50 in test [1] is 46.7 µM; in test [2], 11.8 µM.

As to `FC(F)(F)Sc1ccc(NCc2nnc(C3CC3)o2)cc1`, the values for the IC50 in test [1] and in test [2] were 14.3 µM and 36.4 µM, respectively.

`Cc1noc(COCC(=O)N2CCCCC2c2nccs2)n1` (stereo not drawn): the IC50 in test [1] and in test [2] was over 50.1 µM each time.

As to `COC(=O)c1ccc(N2CCC(N(C)c3ccccc3)CC2)nn1`, the IC50 in test [1] is 12.3 µM; in test [2], 37 µM.

Consider `COC(=O)c1ccc(N2CCC(C(O)c3ccccc3)CC2)nn1` (stereo not drawn), for which the IC50 in test [1] was 20.5 µM; in test [2], 24.3 µM.

With `CC(C)(C)Cc1nnc(NCc2ccsc2)o1`, the IC50 is 12.5 µM in test [1] and over 50.1 µM in test [2].

As for `CC(C)Cc1nnc(NCc2ccsc2)o1`, the IC50 was 35.4 µM in test [1] and 3.95 µM in test [2].

Consider `N#Cc1cccnc1NC1CCN(c2ccccc2OC(F)F)C1=O` (stereo not drawn), for which the IC50 in test [1] is 1.27 µM; in test [2] it was over 50.1 µM.

For `N#Cc1ccc(NCCC2CCN(CC(F)(F)F)CC2)nc1`, the IC50 in test [1] is 14 µM; in test [2], 15.8 µM.

As to `CCc1nc(CN(C)Cc2nnc(-c3cccs3)o2)cs1`, the IC50 in test [1] was 8.56 µM; in test [2], 12.2 µM.

Take `CCc1nc(CN(C)Cc2ncc(-c3cccs3)o2)cs1`: the IC50 in test [1] is 31.4 µM; in test [2] it was 31.1 µM.

Regarding `O=C(c1[nH]nc(C2CC2)c1Cl)N1CCCC1`, the IC50 in test [1] and in test [2] was over 50.1 µM throughout.

Consider `COC(=O)c1cnc(/C=C/c2ccc(C(=O)O)cc2)s1`, for which the IC50 in test [1] is 27.3 µM; in test [2], 26.6 µM.

For `CC1(C)CCC(C(=O)N2CCCO2)c2ccccc21` (stereo not drawn), the IC50 in test [1] and in test [2] was over 50.1 µM each time.

As for `Cc1nc(C2CCCN2Cc2cc(Cl)c3c(c2)OCCO3)no1` (stereo not drawn), the IC50 in test [1] was 15.9 µM; in test [2] it was 22.3 µM.

For the compound `CC(CNC(=O)c1cnccn1)Oc1cccc(Br)c1` (stereo not drawn), the IC50 in test [1] was over 50.1 µM; in test [2] it was 0.211 µM.

Turning to `CC(CNC(=O)c1ccon1)Oc1cccc(Br)c1` (stereo not drawn), the IC50 was 32.6 µM in test [1] and 25.7 µM in test [2].

`CNC(=O)c1cccc(CNC(C)c2ccc(F)cc2N(C)C)c1` (stereo not drawn): the IC50 in test [1] and in test [2] was over 50.1 µM each time.

Turning to `O=S(=O)(CCc1ccccc1)Cc1nc(C2CC2)no1`, the IC50 in test [1] was 10.7 µM; in test [2], 10.6 µM.

`Cc1cc(CNc2ccc(C(F)(F)F)cc2)no1`: the figures for the IC50 in test [1] and in test [2] were 15.6 µM and 19.8 µM, respectively.

Regarding `CC(C)c1ccc(O)c(C(=O)NC2CCN(c3ncccn3)CC2)c1`, the IC50 was 24.7 µM in test [1] and 20.4 µM in test [2].

As to `O=C(CCc1ccc(Br)cc1)NCCc1nnc[nH]1`, the IC50 in test [1] and in test [2] was over 50.1 µM each time.

Regarding `COc1c(Br)cccc1CCNC(=O)c1csnn1`, the IC50 in test [1] and in test [2] was over 50.1 µM in each case.

Take `CCOC(C)c1nc(Cn2cccn2)cs1` (stereo not drawn): the IC50 in test [1] and in test [2] was over 50.1 µM throughout.

Regarding `Cc1oc(-c2ccc(Cl)cc2)nc1C(=O)NC1=NCCS1`, the IC50 in test [1] and in test [2] was over 50.1 µM each time.

As to `N#Cc1ccc(NCc2cccc(COC3CCOCC3)c2)nc1`, the IC50 in test [1] and in test [2] was over 50.1 µM each time.

For the compound `CCN1CCN(S(=O)(=O)c2c[nH]c(C(C)C)n2)c2ccccc21`, the IC50 in test [1] and in test [2] was over 50.1 µM each time.

Regarding `CC(C)CC(C(=O)N(C)Cc1ncnn1C)N1CCCCC1=O` (stereo not drawn), the IC50 in test [1] and in test [2] was over 50.1 µM throughout.

Turning to `CC(c1ccccc1)N(C)C(=O)CN1CCCc2cccc(F)c21` (stereo not drawn), the results for the IC50 in test [1] and in test [2] were over 50.1 µM and 31.2 µM, respectively.

As to `Cc1cnn(CC2CCCN2c2ncnc3c2CCC3)c1` (stereo not drawn), the IC50 in test [1] and in test [2] was over 50.1 µM each time.

With `COc1ccc(CNCCc2ccn(-c3ccccc3)n2)cc1O`, the IC50 in test [1] and in test [2] was over 50.1 µM in each case.

For the compound `CCCC(=O)NC(C)(C)Cc1ccccc1OC`, the IC50 in test [1] is over 50.1 µM; in test [2], 3.52 µM.

`O=C(c1cccnc1)N(CCO)Cc1cc(Br)ccc1F`: the IC50 in test [1] and in test [2] was over 50.1 µM throughout.

On to `Cc1ccc(OCCSCCn2nc3ccccn3c2=O)cc1`, for which the IC50 in test [1] and in test [2] was over 50.1 µM in each case.

`O=C(NCC1(c2ccc(F)cc2)CC1)N1CCC2(CCOC2)C1` (stereo not drawn): the IC50 in test [1] and in test [2] was over 50.1 µM each time.

With `OCC(CO)Nc1ccc2c(Cl)ccc(Cl)c2n1`, the IC50 in test [1] and in test [2] was over 50.1 µM in each case.

As to `COCCC(=O)N1CCN(CC2CC2)c2ccccc21`, the IC50 is over 50.1 µM in test [1] and 11.7 µM in test [2].

As for `CC(C)OCCn1nnnc1Cc1ccc(Br)cc1`, the IC50 was 14.5 µM in test [1] and 35.5 µM in test [2].

Consider `CN(Cc1cnccn1)S(=O)(=O)c1ccc(C(F)(F)F)nc1`, for which the IC50 in test [1] and in test [2] was over 50.1 µM each time.

Regarding `COC(=O)CN(C)Cc1cc(Br)cs1`, the IC50 in test [1] and in test [2] was over 50.1 µM in each case.

Regarding `Clc1ccc(Cc2nc(CNCCn3cccn3)cs2)cc1`, the IC50 in test [1] was 24.8 µM; in test [2] it was 22.8 µM.

`O=C(NCC(CO)Cc1ccc(Cl)cc1)c1ccncc1Cl` (stereo not drawn): the IC50 in test [1] and in test [2] was over 50.1 µM throughout.

Turning to `COc1cccc(CNCc2cccnc2-n2cccn2)c1OC`, the IC50 in test [1] and in test [2] was over 50.1 µM each time.

Regarding `Cc1nc(C2CN(Cc3ccc(F)cc3Br)CCO2)no1` (stereo not drawn), the IC50 in test [1] is 11.2 µM; in test [2], 33 µM.

As to `Fc1ccc(C(NCc2nnc(-c3ccco3)o2)C2CCC2)cc1` (stereo not drawn), the IC50 is 4.62 µM in test [1] and 0.884 µM in test [2].

On to `CN(C)c1cc2c(nn1)CCN(C(=O)c1cc3ccccc3[nH]c1=O)C2`, for which the IC50 in test [1] and in test [2] was over 50.1 µM each time.

Regarding `COc1ccc(C(=O)NCCCC2(C3OCCO3)CCOCC2)cc1`, the IC50 in test [1] and in test [2] was over 50.1 µM throughout.

Regarding `Cc1cnn(CCNCCCOc2ccc3c(c2)OCO3)c1`, the IC50 is 13.6 µM in test [1] and 13.9 µM in test [2].

For the compound `FC(F)Oc1ccc(NCc2nc(C3CC3)no2)c(OC(F)F)c1`, the IC50 in test [1] is over 50.1 µM; in test [2] it was 24.2 µM.

In the case of `COc1ccc(COCC(O)CN(C)c2ccc(C)cc2C)cc1` (stereo not drawn), the values for the IC50 in test [1] and in test [2] were 16.8 µM and 16 µM, respectively.

`CN(CCS(=O)(=O)c1cc(Cl)ccc1Cl)CC(N)=O`: the IC50 in test [1] was over 50.1 µM; in test [2], 24.7 µM.

Regarding `Cc1ccc(NCc2ncc(C(C)(C)C)o2)c(Cl)c1`, the IC50 in test [1] was 9.14 µM; in test [2], 8.32 µM.

As for `CCOC1CCN(CCc2nc(-c3cccc(Cl)c3)no2)CC1`, the results for the IC50 in test [1] and in test [2] were 28.2 µM and 32.4 µM, respectively.

Consider `CCCc1nn(Cc2ccc(Br)s2)c(=O)o1`, for which the IC50 is 25.4 µM in test [1] and 31.8 µM in test [2].

As to `CCN(CC)S(=O)(=O)c1ccc(CNC(=O)c2cc(C)on2)cc1`, the values for the IC50 in test [1] and in test [2] were 26.2 µM and over 50.1 µM, respectively.

As for `CC(C)N(CCNC(=O)c1[nH]nc2ccc(I)cc12)C(C)C`, the IC50 in test [1] was 15.8 µM; in test [2], 17.9 µM.

For the compound `Cc1nnc(SCCC(=O)N(C)Cc2c(F)cccc2Cl)[nH]1`, the IC50 in test [1] and in test [2] was over 50.1 µM in each case.

For the compound `Cc1nnc(SCCC(=O)N(C)Cc2ccc(F)cc2F)[nH]1`, the IC50 in test [1] and in test [2] was over 50.1 µM in each case.

As for `Cc1nnc(SCCC(=O)N(C)Cc2ccc(Cl)s2)[nH]1`, the IC50 is 27.3 µM in test [1] and over 50.1 µM in test [2].

As for `CN(Cc1cccc(OC(F)(F)F)c1)C(=O)c1cnsn1`, the figures for the IC50 in test [1] and in test [2] were 33.3 µM and 24.3 µM, respectively.

`N#Cc1ccc(NC2CCN(c3ncccn3)CC2)cc1C(F)(F)F`: the IC50 in test [1] is 6.68 µM; in test [2] it was 12.2 µM.

For the compound `CC(C)CCC(C)NC(=O)Nc1ccccn1` (stereo not drawn), the IC50 in test [1] is 5.47 µM; in test [2] it was 13.6 µM.

As for `N#Cc1cc(F)c(NCCc2ccc(F)cc2)c(F)c1`, the IC50 in test [1] was 22.5 µM; in test [2], over 50.1 µM.

With `CC(Cn1cccn1)NCc1csc(-c2ccc3c(c2)OCO3)n1` (stereo not drawn), the IC50 in test [1] is over 50.1 µM; in test [2] it was 1.35 µM.

Take `CCc1nc(CNc2ccc(F)cc2I)no1`: the IC50 in test [1] is 2.44 µM; in test [2] it was 3.04 µM.

Take `CC(C)CCOc1ccc(C(C)NC(=O)Cn2cccnc2=O)cc1` (stereo not drawn): the IC50 was 13.2 µM in test [1] and 8.35 µM in test [2].

`Cc1ccn(-c2ccc(NCc3ccccc3F)nn2)n1`: the results for the IC50 in test [1] and in test [2] were 7.29 µM and 32.8 µM, respectively.

For `CCc1nc(C2CCCN2C(=O)CCCOc2cccc(F)c2)no1` (stereo not drawn), the IC50 in test [1] and in test [2] was over 50.1 µM throughout.

Take `COCCN1CCN(C(C)C(=O)Nc2ccnn2C(C)C)CC1` (stereo not drawn): the IC50 in test [1] and in test [2] was over 50.1 µM throughout.

Consider `CC(C)c1cc(C(=O)N2CCN(Cc3ccsc3)CC2)n[nH]1`, for which the IC50 was 39.7 µM in test [1] and 28.4 µM in test [2].

On to `c1ccc2oc(NC3CCCN(Cc4noc(C5CC5)n4)C3)nc2c1` (stereo not drawn), for which the IC50 in test [1] is 13.5 µM; in test [2] it was 24.9 µM.

On to `CC(C)NCc1nc(-c2ccc3c(c2)OCO3)c[nH]1`, for which the IC50 in test [1] and in test [2] was over 50.1 µM each time.
